Here are results for 22 compounds from ChEMBL document CHEMBL5543081, “Design, synthesis and evaluation of antioxidant and anti-inflammatory activities of novel resveratrol derivatives as potential multifunctional drugs” (Eur J Med Chem, 2024).

A short description of assay [1]: Antioxidant activity assessed as DPPH radical scavenging activity measured for 30 mins by spectrophotometric analysis. The format is functional.
Assay [2] in a line: Antioxidant activity assessed as FRAP radical scavenging activity by measuring reduction of Fe3+ complex to Fe2+ analogue incubated for 30 mins by FRAP assay. The format is functional.
A short description of assay [3]: Antioxidant activity assessed as ABTS radical scavenging activity after 20 mins. The format is functional.
Assay [4] deals with RAW264.7. The assay can be described thus: Cytotoxicity against mouse RAW264.7 cells at 10 uM measured after 24 hrs by MTT assay relative to control. The format is functional.
Assay [5] relates to RAW264.7. In words: Antiinflammatory activity against mouse RAW264.7 cells assessed as inhibition of LPS-induced NO production at 10 uM preincubated for 4 hrs with compound followed by LPS stimulation and measured after 12 hrs. The format is functional, cell-based. The note with it: time 16.0 hrs.
Assay [6] has as its system RAW264.7. The assay can be described thus: Antiinflammatory activity in LPS-stimulated mouse RAW264.7 cells assessed as reduction in NF-kappaB p65 phosphorylation level at 10 uM preincubated for 4 hrs followed by LPS stimulation for 12 hrs by Western blot analysis. The format is functional, cell-based. To be noted: time 16.0 hrs.
For assay [7], the system named is RAW264.7. In words: Upregulation of CAT mRNA expression in H2O2 induced mouse RAW264.7 cells at 2.5 to 10 uM by RT-qPCR analysis. The format is functional, cell-based. The note with it: dose 2.5-10 µM.
The test system of assay [8] is RAW264.7. In words: Upregulation of SOD mRNA expression in H2O2 induced mouse RAW264.7 cells at 2.5 to 10 uM by RT-qPCR analysis. The format is functional, cell-based. The note with it: dose 2.5-10 µM.
Assay [9] has as its system RAW264.7. The assay can be described thus: Antiinflammatory activity in LPS-stimulated mouse RAW264.7 cells assessed as effect on ERK phosphorylation level preincubated for 4 hrs followed by LPS stimulation for 12 hrs by Western blot analysis. To be noted: time 16.0 hrs. The format is functional, cell-based.
Assay [10] concerns RAW264.7. The assay can be described thus: Inhibition of H2O2 induced ROS production in mouse RAW264.7 cells assessed as decrease in ROS level preincubated for 3 hrs followed by H2O2 addition and measured after 3 hrs DCFH-DA staining based flow cytometry analysis. The format is functional, cell-based. To be noted: dose 2.5-10 µM, time 6.0 hrs.
The test system of assay [11] is RAW264.7. The assay can be described thus: Protection against H2O2 induced apoptosis in mouse RAW264.7 cells assessed as cell apoptosis rate at 10 uM preincubated for 3 hrs with compound followed by H2O2 stimulation and measured after 3 hrs by annexin V-FITC and PI staining based flow cytometry analysis (reference value: 15.63%). The format is functional. To be noted: time 6 hrs.

In assay [12] the test system is RAW264.7. In words: Antiinflammatory activity in LPS-stimulated mouse RAW264.7 cells assessed as inhibition of p38 phosphorylation level preincubated for 4 hrs followed by LPS stimulation for 12 hrs by Western blot analysis. The format is functional, cell-based. The note with it: dose 2.5-10 µM, time 16.0 hrs.
The subject of assay [13] is RAW264.7. In words: Upregulation of HO-1 mRNA expression in H2O2 induced mouse RAW264.7 cells at 2.5 to 10 uM by RT-qPCR analysis. The format is functional, cell-based. To be noted: dose 2.5-10 µM.
Assay [14] deals with RAW264.7. The assay can be described thus: Antiinflammatory activity in LPS-stimulated mouse RAW264.7 cells assessed as reduction in iNOS level preincubated for 4 hrs followed by LPS stimulation for 12 hrs by Western blot analysis. The format is functional, cell-based. The note with it: dose 2.5-10 µM, time 16.0 hrs.
The test system of assay [15] is RAW264.7. In words: Antiinflammatory activity in LPS-stimulated mouse RAW264.7 cells assessed as reduction in iNOS mRNA expression preincubated for 4 hrs followed by LPS stimulation for 12 hrs by RT-qPCR analysis. The format is functional, cell-based. To be noted: dose 2.5-10 µM, time 16.0 hrs.
Assay [16] has as its system RAW264.7. The assay can be described thus: Upregulation of Nrf2 expression in H2O2 induced mouse RAW264.7 cells by Western blot analysis. The format is functional, cell-based. The note with it: dose 2.5-10 µM.
Assay [17] relates to RAW264.7. The assay can be described thus: Upregulation of GPx mRNA expression in H2O2 induced mouse RAW264.7 cells at 2.5 to 10 uM by RT-qPCR analysis. The format is functional, cell-based. To be noted: dose 2.5-10 µM.
Assay [18] has as its system RAW264.7. In words: Inhibition of H2O2 induced ROS production in mouse RAW264.7 cells assessed as decrease in ROS level at 10 uM preincubated for 3 hrs followed by H2O2 addition and measured after 3 hrs DCFH-DA staining based flow cytometry analysis. The format is functional, cell-based. The note with it: time 6.0 hrs.
For assay [19], the system named is RAW264.7. In words: Antiinflammatory activity in LPS-stimulated mouse RAW264.7 cells assessed as inhibition of JNK phosphorylation level preincubated for 4 hrs followed by LPS stimulation for 12 hrs by Western blot analysis. The format is functional, cell-based. To be noted: dose 2.5-10 µM, time 16.0 hrs.
The test system of assay [20] is RAW264.7. The assay can be described thus: Effect on KEAP1 level in H2O2 induced mouse RAW264.7 cells at 2.5 to 10 uM by Western blot analysis. The format is functional, cell-based. The note with it: dose 2.5-10 µM.
Assay [21] relates to RAW264.7. In words: Protection against H2O2 induced apoptosis in mouse RAW264.7 cells assessed as decrease in cleaved caspase-3 expression at 10 uM by Western blot analysis. The format is functional, cell-based.
Assay [22] has as its system RAW264.7. In words: Upregulation of HO-1 protein level in H2O2 induced mouse RAW264.7 cells at 2.5 to 10 uM by Western blot analysis. The format is functional, cell-based. To be noted: dose 2.5-10 µM.
For assay [23], the system named is RAW264.7. In words: Protection against H2O2 induced apoptosis in mouse RAW264.7 cells assessed as decrease in cleaved PARP expression at 10 uM by Western blot analysis. The format is functional, cell-based.
Assay [24] has as its system RAW264.7. The assay can be described thus: Upregulation of Nrf2 expression in H2O2 induced mouse RAW264.7 cells at 10 uM by Western blot analysis. The format is functional, cell-based.
For assay [25], the system named is RAW264.7. The assay can be described thus: Protection against H2O2 induced apoptosis in mouse RAW264.7 cells assessed as cell apoptosis rate at 10 uM preincubated for 3 hrs with compound followed by H2O2 stimulation and measured after 3 hrs by annexin V-FITC and PI staining based flow cytometry analysis. The format is functional. To be noted: time 6.0 hrs.

SMILES strings stand for the structures. The source made the active and inactive calls. No cut-off for these calls is given here. Bounds are passed on as bounds.

Take `Cc1ccc(C(=O)N/N=C\c2c(O)cc(O)cc2/C=C/c2ccc(O)cc2)cc1`: the IC50 in [1] was 87 µM; in assay [3], 15.7 µM. The Activity in assay [2] turned out to be 0.5 µM.
The like results for `Nc1ccccc1C(=O)N/N=C\c1c(O)cc(O)cc1/C=C/c1ccc(O)cc1` were, in that order, 39.8 µM, 8.5 µM and 1.5 µM.
Regarding `Nc1ccc(C(=O)N/N=C\c2c(O)cc(O)cc2/C=C/c2ccc(O)cc2)cc1`, the Activity was above 80% in assay [4] and 2.2 µM in assay [2]. The IC50 in assay [1] was determined as 46.2 µM; in assay [3], 9.7 µM.
Regarding `O=C(N/N=C\c1c(O)cc(O)cc1/C=C/c1ccc(O)cc1)c1ccc(Cl)cc1`, the IC50 in assay [1] was 89.5 µM; in assay [3] it was 17.9 µM. For the same compound, in [2], the Activity came to 0.7 µM.
Regarding `O=C(N/N=C\c1c(O)cc(O)cc1/C=C/c1ccc(O)cc1)c1cccc(F)c1`, the half-inhibitory concentration (IC50) in assay [1] is 82.6 µM; in [3], 12.5 µM. Further, the Activity in [2] stood at 0.8 µM.
`O=C(N/N=C\c1c(O)cc(O)cc1/C=C/c1ccc(O)cc1)c1ccc(F)cc1`: the IC50 in assay [1] was determined as 86.3 µM; in assay [3] it was 15.7 µM. Moreover, in assay [2], the Activity is 0.8 µM.
Take `N#Cc1ccc(C(=O)N/N=C\c2c(O)cc(O)cc2/C=C/c2ccc(O)cc2)cc1`: the half-inhibitory concentration (IC50) in assay [1] turned out to be 84 µM; in assay [3] it was 18.2 µM. Further, the Activity in assay [2] came to 0.6 µM.
On to `O=C(N/N=C\c1c(O)cc(O)cc1/C=C/c1ccc(O)cc1)c1cccnc1`, for which the Activity was above 80% in [4] and 1.2 µM in assay [2]. The IC50 worked out at 89.5 µM in assay [1] and 12.7 µM in [3].
As for `O=C(N/N=C\c1c(O)cc(O)cc1/C=C/c1ccc(O)cc1)c1ccccc1`, the concentration for half-maximal inhibition (IC50) in [1] came out at 84.4 µM; in assay [3], 13.4 µM. Besides, in assay [2], the Activity was found to be 0.7 µM.
Take `O=C(N/N=C\c1c(O)cc(O)cc1/C=C/c1ccc(O)cc1)c1cccc(O)c1`: the outcome in assay [5] was Active. The figures for the Activity in assay [4] and in assay [2] were above 80% and 1.3 µM, respectively. In addition, the IC50 in assay [1] was determined as 76.6 µM; in [3], 11.7 µM.
For `O=C(N/N=C\c1c(O)cc(O)cc1/C=C/c1ccc(O)cc1)c1ccc(O)cc1`, the result in assay [6], in [13], in assay [5], in assay [21], in assay [22] and in assay [23] was Active. For the same compound, the outcome in [7], in [8], in assay [9], in assay [17] and in assay [20] was inactive. Moreover, the inhibition entry in assay [10] is “Dose-Dependent Effect”. In addition, the Activity in assay [11] was 26.58%; in assay [12] it was “Dose-Dependent Effect”; in [14], “Dose-Dependent Effect”; in assay [15], “Dose-Dependent Effect”; in assay [16] it was “Dose-Dependent Effect”; in assay [4] it was above 80%. The Activity was 1.1 µM in assay [2] and “Dose-Dependent Effect” in [19]. Besides, the inhibition entry in assay [18] is “Active”. For the same compound, the IC50 in [1] amounted to 69.9 µM; in assay [3], 13 µM.
For `O=C(N/N=C\c1c(O)cc(O)cc1/C=C/c1ccc(O)cc1)c1cccc(Cl)c1`, the results for the IC50 in assay [1] and in assay [3] were 81.9 µM and 15.2 µM, respectively. The Activity in assay [2] amounted to 0.9 µM.
For `Oc1ccc(/C=C/c2cc(O)cc(O)c2)cc1` [RESVERATROL], the result in assay [9], in [24], in [20], in [21], in assay [25] and in assay [23] was inactive. The IC50 in [1] stood at 86.6 µM; in [3], 18.4 µM. Moreover, the Activity in assay [2] amounted to 0.9 µM.
In the case of `O=C(N/N=C\c1c(O)cc(O)cc1/C=C/c1ccc(O)cc1)c1ccccn1`, the outcome in assay [5] was Active. Further, in assay [18], the inhibition result was “Active”. For the same compound, the Activity in assay [4] was above 80%; in assay [2] it was 0.9 µM. Moreover, the concentration for half-maximal inhibition (IC50) was determined as 98.3 µM in assay [1] and 17.1 µM in assay [3].
As to `Cc1cccc(C(=O)N/N=C\c2c(O)cc(O)cc2/C=C/c2ccc(O)cc2)c1`, the results for the IC50 in assay [1] and in assay [3] were 80.8 µM and 18 µM, respectively. Besides, in assay [2], the Activity came out at 0.9 µM.
The like results for `O=C(N/N=C\c1c(O)cc(O)cc1/C=C/c1ccc(O)cc1)c1ccc(Br)cc1` were, in that order, 84 µM, 13 µM and 0.5 µM.
For `O=C(N/N=C\c1c(O)cc(O)cc1/C=C/c1ccc(O)cc1)c1ccccc1F`, the IC50 worked out at 97.8 µM in assay [1] and 17.3 µM in assay [3]. In assay [2], the Activity worked out at 1 µM.
For the compound `O=C(N/N=C\c1c(O)cc(O)cc1/C=C/c1ccc(O)cc1)c1cccc([N+](=O)[O-])c1`, the IC50 in [1] is 79.9 µM; in [3] it was 11.6 µM. Besides, the Activity in assay [2] is 0.4 µM.
The like results for `Cc1c(C)c2c(c(C)c1O)CCC(C)(C(=O)O)O2` (stereo not given) [TROLOX] were, in that order, 32.7 µM, 14.7 µM and 2.5 µM.
The like results for `O=C(N/N=C\c1c(O)cc(O)cc1/C=C/c1ccc(O)cc1)c1ccccc1O` were, in that order, 37.8 µM, 12.8 µM and 0.9 µM.
The like results for `Cc1ccccc1C(=O)N/N=C\c1c(O)cc(O)cc1/C=C/c1ccc(O)cc1` were, in that order, 97.3 µM, 17.2 µM and 0.4 µM.
In the case of `O=C(N/N=C\c1c(O)cc(O)cc1/C=C/c1ccc(O)cc1)c1ccncc1`, the Activity in assay [4] was above 80%; in [2] it was 1.1 µM. In addition, the half-maximal inhibitory concentration (IC50) in [1] came out at 104 µM; in assay [3] it was 13.5 µM.
